# ChEMBL document CHEMBL1201862, “PubChem BioAssay data set” (2004)
# The source made the active and inactive calls.
# Experiments:
# [1] = biological target: T1, Short transient receptor potential channel 4 (Mus musculus, UniProt Q9QUQ5); test: block of DAMGO-driven TRPC4 calcium entry – cell-based, HEK293 TRPC4/mu-opioid, Fluo-4 calcium, dose response (AID 434942); format: functional;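 further: potency of inhibitors blocking the TRPC4 calcium response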
# T1 sequence (Q9QUQ5 whole entry): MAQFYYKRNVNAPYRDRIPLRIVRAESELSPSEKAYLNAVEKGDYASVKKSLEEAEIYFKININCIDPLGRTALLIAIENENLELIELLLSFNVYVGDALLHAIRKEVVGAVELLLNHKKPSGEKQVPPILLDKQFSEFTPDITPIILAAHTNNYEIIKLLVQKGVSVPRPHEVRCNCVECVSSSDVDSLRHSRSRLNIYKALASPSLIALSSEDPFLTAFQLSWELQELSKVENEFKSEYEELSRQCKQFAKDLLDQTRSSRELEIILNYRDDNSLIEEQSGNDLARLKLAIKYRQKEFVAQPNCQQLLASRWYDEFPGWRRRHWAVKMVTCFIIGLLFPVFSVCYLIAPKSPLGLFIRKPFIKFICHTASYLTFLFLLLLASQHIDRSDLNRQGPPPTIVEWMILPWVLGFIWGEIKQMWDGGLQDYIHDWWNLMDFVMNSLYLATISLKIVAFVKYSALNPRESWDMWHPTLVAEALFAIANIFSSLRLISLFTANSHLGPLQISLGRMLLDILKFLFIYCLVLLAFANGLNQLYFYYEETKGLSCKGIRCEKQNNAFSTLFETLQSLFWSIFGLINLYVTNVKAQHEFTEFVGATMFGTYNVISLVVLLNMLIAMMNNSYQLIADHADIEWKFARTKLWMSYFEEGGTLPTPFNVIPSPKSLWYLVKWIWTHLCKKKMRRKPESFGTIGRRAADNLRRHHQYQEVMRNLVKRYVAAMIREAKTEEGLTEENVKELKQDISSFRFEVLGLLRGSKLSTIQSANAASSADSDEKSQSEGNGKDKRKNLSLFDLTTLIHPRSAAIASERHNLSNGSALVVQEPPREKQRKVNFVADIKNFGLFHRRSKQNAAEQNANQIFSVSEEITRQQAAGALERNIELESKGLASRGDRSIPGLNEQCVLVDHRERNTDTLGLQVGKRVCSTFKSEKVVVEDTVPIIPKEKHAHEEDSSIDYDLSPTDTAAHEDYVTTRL
# HEK293 [2] = test: inhibition of NOD1-driven NF-kB reporter – cell-based, luminescence, uHTS, primary screen (AID 1578); format: functional; settings: Homo sapiens
# HEK293 [3] = test: cells; format: functional, cell-based; settings: Homo sapiens
# HEK293 [4] = test: cells; format: functional, cell-based; settings: Homo sapiens; remark: listed apart in the source
# [5] = biological target: Nucleotide-binding oligomerization domain-containing protein 2 (Homo sapiens, UniProt Q9HC29); test: inhibition of NOD2-driven NF-kB reporter – cell-based, luminescence, uHTS, HEK293 (AID 1566); format: functional
# HEK293 [6] = test: NOD2 signaling inhibitors in MDP-stimulated cells, cell-based, uHTS, luminescence (AID 2001); format: functional; settings: Homo sapiens
# HEK293 [7] = test: cells; format: functional, cell-based; settings: Homo sapiens; remark: listed apart in the source
# Cytochrome P450 3A4 = Cytochrome P450 3A4 (Homo sapiens, UniProt P08684); settings: Potency;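 further: confirmatory qHTS run detecting inhibitors and substrates of CYP3A4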
# NADPH oxidase 1 = biological target: T2, NADPH oxidase 1 (Homo sapiens, UniProt Q9Y5S8); format: functional, cell-based;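 further: Cell-based assay with luminescence read-out, IC50 derived from inhibitor dose-response curves; intracellular ROS from endogenous NOX1 in intact HT29 colon cancer cells; potency of inhibitors that lower the ROS luminescence signal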
# T2 sequence (Q9Y5S8 whole entry): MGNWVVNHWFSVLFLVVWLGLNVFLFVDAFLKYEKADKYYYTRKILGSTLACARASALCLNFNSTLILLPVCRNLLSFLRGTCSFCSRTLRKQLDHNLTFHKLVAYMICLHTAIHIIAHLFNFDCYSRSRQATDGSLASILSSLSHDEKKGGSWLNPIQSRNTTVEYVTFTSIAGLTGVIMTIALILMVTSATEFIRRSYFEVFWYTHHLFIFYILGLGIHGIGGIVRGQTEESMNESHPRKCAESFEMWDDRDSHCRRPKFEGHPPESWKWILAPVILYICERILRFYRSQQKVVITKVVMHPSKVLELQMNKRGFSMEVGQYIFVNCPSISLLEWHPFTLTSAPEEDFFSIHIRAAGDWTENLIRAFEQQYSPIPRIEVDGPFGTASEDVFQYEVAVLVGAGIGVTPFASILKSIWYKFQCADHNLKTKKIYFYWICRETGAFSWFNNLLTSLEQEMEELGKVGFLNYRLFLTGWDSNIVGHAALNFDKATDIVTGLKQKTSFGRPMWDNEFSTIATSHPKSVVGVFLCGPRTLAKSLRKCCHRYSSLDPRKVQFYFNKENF
# Cytochrome P450 2C9 = Cytochrome P450 2C9 (Homo sapiens, UniProt P11712)
# Cytochrome P450 2C19 = Cytochrome P450 2C19 (Homo sapiens, UniProt P33261); test: Cytochrome panel assay with activity outcomes. Panel member name: p450-cyp2c19 Compounds with AC50 equal or less than 10 uM are considered active; format: functional; settings: read-out: AC50
# [8] = biological target: T3, High affinity choline transporter 1 (Homo sapiens, UniProt Q9GZV3); test: human choline transporter blockers, potency – cell-based, 5-point CRC, membrane potential dye, dose response (AID 504840); format: functional
# T3 sequence (Q9GZV3 whole entry): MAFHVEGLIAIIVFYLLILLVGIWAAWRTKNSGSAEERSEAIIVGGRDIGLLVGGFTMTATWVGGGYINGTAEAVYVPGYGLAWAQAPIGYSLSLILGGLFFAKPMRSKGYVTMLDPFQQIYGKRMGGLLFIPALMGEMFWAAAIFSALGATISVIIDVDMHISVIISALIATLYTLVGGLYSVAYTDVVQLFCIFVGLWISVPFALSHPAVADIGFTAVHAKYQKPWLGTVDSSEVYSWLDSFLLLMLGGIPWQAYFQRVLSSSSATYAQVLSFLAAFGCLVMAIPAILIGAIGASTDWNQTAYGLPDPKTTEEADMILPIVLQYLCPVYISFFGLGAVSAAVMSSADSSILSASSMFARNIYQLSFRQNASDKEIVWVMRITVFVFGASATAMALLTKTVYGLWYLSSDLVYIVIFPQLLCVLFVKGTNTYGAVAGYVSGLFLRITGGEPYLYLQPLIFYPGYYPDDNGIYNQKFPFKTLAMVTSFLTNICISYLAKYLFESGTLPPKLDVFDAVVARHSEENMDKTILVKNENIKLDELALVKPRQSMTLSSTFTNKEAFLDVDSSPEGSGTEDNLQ
# Vero = test: cells; format: functional; settings: Chlorocebus sabaeus
# [9] = biological target: T1, Short transient receptor potential channel 4; test: calcium entry via TRPC4 opening agents – cell-based, HEK293 TRPC4/mu-opioid, Fluo-4 calcium, dose response (AID 434937); format: functional
# [10] = Luminescence Cell-Based Dose Retest to Confirm Inhibitors of Cancer Stem Cells. [Related pubchem assays (depositor defined):AID2717, AID2721]; format: functional; settings: Homo sapiens
# [11] = biological target: T4, Rac GTPase-activating protein 1 (Homo sapiens, UniProt Q9H0H5); test: blockers of MgcRacGAP-driven Rac1 GTP hydrolysis – biochemical, ADP Hunter fluorescence, primary and confirmatory, confirmation (AID 624330); format: functional
# T4 sequence (Q9H0H5 whole entry): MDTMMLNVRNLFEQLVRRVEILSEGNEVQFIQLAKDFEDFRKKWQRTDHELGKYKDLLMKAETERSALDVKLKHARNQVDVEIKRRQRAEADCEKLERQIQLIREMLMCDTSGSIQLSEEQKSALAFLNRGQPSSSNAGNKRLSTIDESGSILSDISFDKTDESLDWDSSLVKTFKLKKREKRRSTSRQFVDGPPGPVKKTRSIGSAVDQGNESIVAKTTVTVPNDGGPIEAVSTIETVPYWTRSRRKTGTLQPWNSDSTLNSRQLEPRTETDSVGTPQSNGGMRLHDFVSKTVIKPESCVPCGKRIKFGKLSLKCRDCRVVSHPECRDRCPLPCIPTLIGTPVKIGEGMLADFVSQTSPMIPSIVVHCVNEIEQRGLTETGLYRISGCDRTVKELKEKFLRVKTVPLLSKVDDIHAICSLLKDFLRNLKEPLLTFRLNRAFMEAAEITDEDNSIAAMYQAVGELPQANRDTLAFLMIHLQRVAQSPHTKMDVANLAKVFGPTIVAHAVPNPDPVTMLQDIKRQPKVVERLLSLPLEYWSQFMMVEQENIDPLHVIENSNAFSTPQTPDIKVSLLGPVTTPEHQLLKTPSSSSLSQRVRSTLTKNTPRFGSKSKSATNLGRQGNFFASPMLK
# Chain of Cytochrome P450 2C9 (P11712 whole entry): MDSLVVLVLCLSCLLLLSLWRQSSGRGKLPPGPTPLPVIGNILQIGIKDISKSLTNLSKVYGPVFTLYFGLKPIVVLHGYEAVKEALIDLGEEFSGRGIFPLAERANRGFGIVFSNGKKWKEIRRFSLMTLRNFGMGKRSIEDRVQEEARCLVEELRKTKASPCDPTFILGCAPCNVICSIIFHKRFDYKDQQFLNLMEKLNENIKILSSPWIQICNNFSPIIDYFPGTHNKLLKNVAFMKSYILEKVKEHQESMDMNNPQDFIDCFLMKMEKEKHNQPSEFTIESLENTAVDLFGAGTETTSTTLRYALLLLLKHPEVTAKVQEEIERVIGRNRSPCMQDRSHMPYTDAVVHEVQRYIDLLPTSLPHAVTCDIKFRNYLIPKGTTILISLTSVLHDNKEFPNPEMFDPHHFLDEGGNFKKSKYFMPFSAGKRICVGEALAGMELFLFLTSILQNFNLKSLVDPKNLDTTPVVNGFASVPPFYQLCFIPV
# Chain of Cytochrome P450 3A4 (P08684 whole entry): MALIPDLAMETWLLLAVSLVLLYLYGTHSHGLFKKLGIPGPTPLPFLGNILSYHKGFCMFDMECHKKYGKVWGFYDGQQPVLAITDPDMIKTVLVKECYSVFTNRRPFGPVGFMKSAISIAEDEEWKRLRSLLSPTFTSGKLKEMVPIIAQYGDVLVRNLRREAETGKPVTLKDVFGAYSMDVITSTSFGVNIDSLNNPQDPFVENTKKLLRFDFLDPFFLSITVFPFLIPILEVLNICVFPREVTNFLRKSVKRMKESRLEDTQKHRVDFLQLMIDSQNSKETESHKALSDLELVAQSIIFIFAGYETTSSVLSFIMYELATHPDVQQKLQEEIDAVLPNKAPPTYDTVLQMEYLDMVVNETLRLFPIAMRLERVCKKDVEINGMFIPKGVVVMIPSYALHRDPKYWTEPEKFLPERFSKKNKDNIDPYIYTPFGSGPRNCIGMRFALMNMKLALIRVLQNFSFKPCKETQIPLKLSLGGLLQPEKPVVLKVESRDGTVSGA
# Chain of Nucleotide-binding oligomerization domain-containing protein 2 (Q9HC29 whole entry, the tested form may be a part): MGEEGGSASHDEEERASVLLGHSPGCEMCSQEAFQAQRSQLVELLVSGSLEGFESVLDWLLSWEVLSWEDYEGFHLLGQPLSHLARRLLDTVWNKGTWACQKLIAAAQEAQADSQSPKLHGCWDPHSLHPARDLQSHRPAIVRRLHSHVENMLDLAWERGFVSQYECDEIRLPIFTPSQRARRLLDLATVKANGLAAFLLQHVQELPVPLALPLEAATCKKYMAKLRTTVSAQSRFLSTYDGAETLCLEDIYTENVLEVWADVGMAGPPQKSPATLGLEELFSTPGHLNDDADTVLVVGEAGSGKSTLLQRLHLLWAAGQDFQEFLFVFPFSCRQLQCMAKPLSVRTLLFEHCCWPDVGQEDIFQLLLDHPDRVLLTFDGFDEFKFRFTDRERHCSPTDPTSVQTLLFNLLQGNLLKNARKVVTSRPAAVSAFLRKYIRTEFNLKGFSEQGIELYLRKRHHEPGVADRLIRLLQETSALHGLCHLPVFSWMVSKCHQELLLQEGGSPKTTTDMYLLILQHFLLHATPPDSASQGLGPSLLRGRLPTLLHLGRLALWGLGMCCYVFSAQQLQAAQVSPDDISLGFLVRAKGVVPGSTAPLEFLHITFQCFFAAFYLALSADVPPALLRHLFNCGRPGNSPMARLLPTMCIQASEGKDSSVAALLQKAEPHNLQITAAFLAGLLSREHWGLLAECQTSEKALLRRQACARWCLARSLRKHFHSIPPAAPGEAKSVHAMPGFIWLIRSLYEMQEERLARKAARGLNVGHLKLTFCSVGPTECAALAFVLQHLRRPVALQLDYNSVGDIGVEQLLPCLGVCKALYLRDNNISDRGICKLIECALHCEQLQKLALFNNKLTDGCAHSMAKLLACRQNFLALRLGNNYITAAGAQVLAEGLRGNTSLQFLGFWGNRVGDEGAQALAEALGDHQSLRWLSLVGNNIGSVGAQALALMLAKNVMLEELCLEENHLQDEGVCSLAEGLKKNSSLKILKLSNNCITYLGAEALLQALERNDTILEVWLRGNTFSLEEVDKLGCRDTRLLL
# Chain of Cytochrome P450 2C19 (P33261 whole entry): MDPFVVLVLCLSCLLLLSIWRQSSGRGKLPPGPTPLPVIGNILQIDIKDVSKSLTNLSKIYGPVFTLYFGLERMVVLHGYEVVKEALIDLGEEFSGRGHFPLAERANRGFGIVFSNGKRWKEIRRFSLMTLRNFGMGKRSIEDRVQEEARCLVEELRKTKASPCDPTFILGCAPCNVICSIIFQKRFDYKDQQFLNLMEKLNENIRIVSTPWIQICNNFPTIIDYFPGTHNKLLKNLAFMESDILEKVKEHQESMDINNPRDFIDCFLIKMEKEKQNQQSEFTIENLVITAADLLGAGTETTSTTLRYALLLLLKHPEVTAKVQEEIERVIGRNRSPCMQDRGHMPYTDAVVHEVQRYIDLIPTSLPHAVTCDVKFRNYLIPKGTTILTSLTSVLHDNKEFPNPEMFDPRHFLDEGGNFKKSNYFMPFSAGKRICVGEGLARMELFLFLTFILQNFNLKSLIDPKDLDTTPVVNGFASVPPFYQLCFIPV
smiles,measurement,setting,value
COc1ccc(F)cc1C(=O)C1CCCN(Cc2ccc3c(c2)OCCO3)C1 (configuration not stated),EC50,[1],1.33 µM (active)
CCc1ccc(OCC(=O)Nc2ccc(-c3cc4ccccc4oc3=O)c(OC)c2)cc1,EC50,HEK293 [2],2.18 µM (active)
same,IC50,HEK293 [3],2.79 µM (active)
same,IC50,HEK293 [4],11.3 µM (active)
same,EC50,[5],5.25 µM (active)
same,IC50,HEK293 [6],2.94 µM (active)
same,IC50,HEK293 [7],> 20 µM (inactive)
CNC(=O)[C@@]1(C)C=C[C@@H](Cc2ccccc2)N1C(=O)OC,AC50,Cytochrome P450 3A4,3.16 µM (inconclusive)
CSc1ccc(NC(=O)Nc2ccc(N(C)C)cc2)cc1,IC50,NADPH oxidase 1,0.0777 µM (active)
CCN(CC)c1ccc(NC(=O)Nc2ccc(OCc3ccccc3)cc2)cc1,IC50,NADPH oxidase 1,0.235 µM (active)
CCC(=O)CC(NC(=O)OC)c1ccccc1 (configuration not stated),AC50,Cytochrome P450 3A4,6.31 µM (inconclusive)
Cc1ccc(OP(=O)(Oc2ccc(C)cc2)N2C=Cc3ccccc3[C@H]2C#N)cc1,AC50,Cytochrome P450 2C9,inconclusive
Cc1cc(C)cc(NC(S)=NC2CC3CCC(C2)N3Cc2ccco2)c1 (configuration not stated),AC50,Cytochrome P450 2C19,35.5 µM (inconclusive)
same,AC50,Cytochrome P450 2C9,inconclusive
N#Cc1cccc(-c2nc3cnc(N4CCOCC4)nc3n(Cc3ccc(F)cc3)c2=O)c1,AC50,Cytochrome P450 2C9,inconclusive
Cc1cc(OCc2cc(C(=O)NCCN3CCCCC3CO)no2)cc(C)c1Cl (configuration not stated),EC50,[1],2.99 µM (active)
same,IC50,[8],18.2 µM (active)
same,CC50,Vero,> 25 µM (active)
Fc1ccc(NC(=S)NNC(=S)Nc2ccccc2)cc1,IC50,NADPH oxidase 1,0.218 µM (active)
O=C(Oc1ccc([N+](=O)[O-])cc1)c1sc2ccccc2c1Cl,IC50,NADPH oxidase 1,> 17 µM (not active)
CN(C)C(CNC(=O)Cc1cccc(C(F)(F)F)c1)c1ccccc1 (configuration not stated),EC50,[1],0.0093 µM (active)
same,EC50,[9],0.0947 µM (active)
COc1cc(/C=C/C(=O)c2ccc3c(c2)OCO3)cc(Cl)c1O,AC50,[10],6.39 µM (active)
same,EC50,[9],5.96 µM (active)
same,IC50,[11],93.6 µM (active)
"CCOC(=O)C1(O)Oc2cc(OC)cc(OC)c2C(=O)C1c1ccccc1 (configuration not stated) [2-ETHOXYCARBONYL-2-HYDROXY-5,7-DIMETHOXYISOFLAVANONE]",AC50,Cytochrome P450 3A4,20 µM (inconclusive)
Nc1ccc2ccccc2c1 [NAPHTHYLAMINE],AC50,Cytochrome P450 3A4,12.6 µM (inconclusive)
